Oligonucleotides are written 5' to 3', each unit as a sugar letter and its base; * is a phosphorothioate linkage, no mark a phosphodiester; rarer units and linkages stand in square brackets, end groups in braces. Plain capitals give the bases only. e = 2'-O-(2-methoxyethyl) (MOE); l = locked nucleic acid (LNA); [5mC] = 5-methylcytosine; d = 2'-deoxy (DNA)
Test system: GRN mRNA
Assay: GRN mRNA qPCR in SK-N-AS cells transfected with ASOs
Assay type: cell-based, human
Conditions: SK-N-AS, normalized to CO-1589; for 30 nM FC (GRN mRNA) / 60 nM FC (GRN mRNA) / 120 nM FC (GRN mRNA): Table 13; for hGRN mRNA FC: Table 11, 48 hours; for 120 nM FC (GRN mRNA) / hGRN mRNA FC: 120 nM
Summary of the method: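 Fold change in GRN mRNA, by qPCR with GAPDH/PPIA housekeeping normalization, referenced to steric non-targeting control ASO(s) such as CO-1589. ASOs were transfected into SK-N-AS neuroblastoma cells in dose titrations (20 to 160 nM initially). Cells were harvested 48 hours post-transfection.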

Substance | 30 nM FC (GRN mRNA) [FC] | 60 nM FC (GRN mRNA) [FC] | 120 nM FC (GRN mRNA) [FC] | hGRN mRNA FC [FC]
CO-6416: ASO based on parent ASOs CO-4363 and CO-4364 (eG*eG*lA*e[5mC]*eT*lT*eG*eG*lG*eA*eG*lT*eG*eG*lT*eG*eA*l[5mC]*eT*eG*eA) | 1.4 | 1.6 | 2.2 | –
CO-6417: ASO based on parent ASOs CO-4363 and CO-4364 (eG*eG*eA*e[5mC]*lT*eT*eG*eG*lG*eA*eG*eT*lG*eG*eT*eG*lA*e[5mC]*eT*eG*eA) | 1.4 | 2.3 | 2.8 | –
CO-6418: ASO based on parent ASOs CO-4363 and CO-4364 (eG*eG*eA*e[5mC]*eT*lT*eG*eG*eG*eA*lG*eT*eG*eG*eT*lG*eA*e[5mC]*eT*eG*eA) | 1.6 | 1.6 | 1.9 | –
CO-6419: ASO based on parent ASOs CO-4363 and CO-4364 (eG*eG*eA*e[5mC]*eT*dT*dG*dG*dG*dA*dG*dT*dG*dG*dT*dG*dA*d[5mC]*eT*eG*eA*eA*e[5mC]) | 1.0 | 1.0 | 0.9 | –
CO-6420: ASO based on parent ASOs CO-4363 and CO-4364 (eG*eG*lA*e[5mC]*eT*lT*eG*eG*lG*eA*eG*lT*eG*eG*lT*eG*eA*l[5mC]*eT*eG*lA*eA*e[5mC]) | 1.4 | 2.7 | 2.2 | –
CO-6421: ASO based on parent ASOs CO-4363 and CO-4364 (eG*eG*eA*e[5mC]*eT*lT*eG*eG*eG*eA*eG*lT*eG*eG*eT*eG*eA*l[5mC]*eT*eG*eA*eA*e[5mC]) | 1.3 | 2.1 | 1.7 | –
CO-6422: ASO based on parent ASOs CO-4363 and CO-4364 (eG*eG*eA*l[5mC]*eT*eT*eG*lG*eG*eA*eG*lT*eG*eG*eT*lG*eA*e[5mC]*eT*lG*eA*eA*e[5mC]) | 1.9 | 2.0 | 2.1 | –
CO-6423: ASO based on parent ASOs CO-4363 and CO-4364 (eG*eG*eA*e[5mC]*lT*eT*eG*eG*eG*lA*eG*eT*eG*eG*lT*eG*eA*e[5mC]*eT*lG*eA*eA*e[5mC]) | 1.2 | 2.6 | 2.8 | –
CO-6425: ASO based on parent ASOs CO-4363 and CO-4364 (eG*eG*eG*eA*e[5mC]*eT*eT*eG*eG*eG*eA*eG*eT*eG*eG*eT*eG*eA*e[5mC]*eT*eG*eA*eA*e[5mC]) | 0.9 | 1.3 | 1.3 | –
CO-6426: ASO based on parent ASOs CO-4363 and CO-4364 (eG*eG*eA*e[5mC]*eT*eT*eG*eG*eG*eA*eG*eT*eG*eG*eT*eG*eA*e[5mC]*eT*eG*eA*eA*e[5mC]*e[5mC]) | 0.8 | 1.5 | 1.3 | –
CO-6427: ASO based on parent ASOs CO-4363 and CO-4364 (eG*eG*eG*eA*e[5mC]*eT*eT*eG*eG*eG*eA*eG*eT*eG*eG*eT*eG*eA*e[5mC]*eT*eG*eA*eA*e[5mC]*e[5mC]) | 1.2 | 1.1 | 1.2 | –
CO-6428: ASO based on parent ASOs CO-4363 and CO-4364 (eG*eG*eG*eA*e[5mC]*eT*eT*eG*eG*eG*eA*eG*eT*eG*eG*eT*eG*eA*e[5mC]*eT*eG*eA*eA*e[5mC]*e[5mC]*eT) | 1.1 | 1.4 | 1.0 | –
CO-6429: ASO based on parent ASOs CO-4363 and CO-4364 (eA*eG*eG*eG*eA*e[5mC]*eT*eT*eG*eG*eG*eA*eG*eT*eG*eG*eT*eG*eA*e[5mC]*eT*eG*eA*eA*e[5mC]*e[5mC]) | 1.0 | 1.5 | 1.4 | –
CO-6430: ASO designed to target an intragenic enhancer RNA (eRNA) (eT*eG*e[5mC]*eG*e[5mC]*eA*e[5mC]*eA*e[5mC]*eA*eG*eG*eT*eA*e[5mC]*e[5mC]*eA*eG*eA*eG) | – | – | – | 1.0
CO-6431: ASO designed to target an intragenic enhancer RNA (eRNA) (eA*e[5mC]*eG*eG*eA*e[5mC]*e[5mC]*eT*e[5mC]*e[5mC]*eT*e[5mC]*eA*e[5mC]*eT*eA*eA*eG*e[5mC]*eT) | – | – | – | 0.8
CO-6432: ASO designed to target an intragenic enhancer RNA (eRNA) (eG*eA*eG*eA*eA*e[5mC]*eG*e[5mC]*eT*eA*e[5mC]*e[5mC]*eA*e[5mC]*eG*eG*eA*e[5mC]*e[5mC]*eT) | – | – | – | 1.0

Substance | 30 nM FC (GRN mRNA) [FC] | 60 nM FC (GRN mRNA) [FC] | 120 nM FC (GRN mRNA) [FC] | hGRN mRNA FC [FC]
CO-6433: ASO designed to target an intragenic enhancer RNA (eRNA) (eG*e[5mC]*eA*e[5mC]*eT*eG*e[5mC]*eT*eG*e[5mC]*e[5mC]*e[5mC]*e[5mC]*e[5mC]*eA*eA*eG*eA*e[5mC]*eA) | – | – | – | 0.9
CO-6434: ASO designed to target an intragenic enhancer RNA (eRNA) (eT*e[5mC]*e[5mC]*eG*eA*eT*e[5mC]*eA*e[5mC]*e[5mC]*eT*eG*e[5mC]*eA*e[5mC]*eT*eG*e[5mC]*eT*eG) | – | – | – | 0.9
CO-6435: ASO designed to target an intragenic enhancer RNA (eRNA) (eA*eG*eG*e[5mC]*e[5mC]*eA*e[5mC]*e[5mC]*eT*eG*e[5mC]*eT*eG*e[5mC]*eT*e[5mC]*e[5mC]*eG*eA*eT) | – | – | – | 1.2
CO-6436: ASO designed to target an intragenic enhancer RNA (eRNA) (eT*eG*eT*e[5mC]*e[5mC]*e[5mC]*e[5mC]*eA*e[5mC]*eT*e[5mC]*eA*eG*eG*e[5mC]*e[5mC]*eA*e[5mC]*e[5mC]*eT) | – | – | – | 1.1
CO-6437: ASO designed to target an intragenic enhancer RNA (eRNA) (eG*eA*e[5mC]*eA*eA*eA*eG*eA*e[5mC]*e[5mC]*e[5mC]*eA*e[5mC]*e[5mC]*e[5mC]*e[5mC]*eT*eG*eT*e[5mC]) | – | – | – | 1.1
CO-6438: ASO designed to target an intragenic enhancer RNA (eRNA) (e[5mC]*eT*eA*e[5mC]*eT*eG*eA*eG*e[5mC]*e[5mC]*eT*eG*eG*eA*eA*eG*eT*eG*eA*e[5mC]) | – | – | – | 1.2
CO-6439: ASO designed to target an intragenic enhancer RNA (eRNA) (eG*e[5mC]*eT*e[5mC]*e[5mC]*e[5mC]*eT*eG*eT*eG*eT*eG*e[5mC]*eT*eA*e[5mC]*eT*eG*eA*eG) | – | – | – | 1.1
CO-6440: ASO designed to target an intragenic enhancer RNA (eRNA) (eG*eT*eT*e[5mC]*eA*eT*eG*e[5mC]*eT*eA*e[5mC]*e[5mC]*e[5mC]*e[5mC]*e[5mC]*eT*eA*eG*eT*eG) | – | – | – | 1.0
CO-6441: ASO designed to target an intragenic enhancer RNA (eRNA) (eG*eG*e[5mC]*eT*eG*eA*eT*eG*e[5mC]*eA*eG*eG*eG*eT*eT*e[5mC]*eA*eT*eG*e[5mC]) | – | – | – | 1.4
CO-6442: ASO designed to target an intragenic enhancer RNA (eRNA) (e[5mC]*eT*eG*eG*eG*eA*eG*e[5mC]*e[5mC]*eT*eG*eG*e[5mC]*eT*eG*eA*eT*eG*e[5mC]*eA) | – | – | – | 1.2
CO-6443: ASO designed to target an intragenic enhancer RNA (eRNA) (eG*e[5mC]*e[5mC]*e[5mC]*eT*eG*eA*e[5mC]*eA*e[5mC]*eG*e[5mC]*eA*e[5mC]*e[5mC]*eT*eT*eA*e[5mC]*eA) | – | – | – | 1.0
CO-6444: ASO designed to target an intragenic enhancer RNA (eRNA) (eT*eG*e[5mC]*e[5mC]*e[5mC]*eA*eA*eT*eG*e[5mC]*e[5mC]*e[5mC]*eA*eA*e[5mC]*eG*eT*eG*eA*eG) | – | – | – | 1.0
CO-6445: ASO designed to target an intragenic enhancer RNA (eRNA) (eG*eT*eG*eG*eG*eA*eA*eG*eT*eA*eT*eG*eG*e[5mC]*eT*eG*e[5mC]*eT*eG*e[5mC]) | – | – | – | 1.3
CO-6446: ASO designed to target an intragenic enhancer RNA (eRNA) (eT*eG*e[5mC]*eT*eG*eT*eG*eA*eG*e[5mC]*eT*eG*e[5mC]*e[5mC]*e[5mC]*eA*eG*eT*eG*eG) | – | – | – | 1.1
CO-6447: ASO designed to target an intragenic enhancer RNA (eRNA) (eA*eT*eG*eG*eT*eT*e[5mC]*eT*eA*e[5mC]*e[5mC]*eT*eG*e[5mC]*eT*eG*eT*eG*eA*eG) | – | – | – | 1.2

Source: US20250243488A1, “METHODS OF MODULATING PROGRANULIN EXPRESSION USING ANTISENSE OLIGONUCLEOTIDES TARGETING REGULATORY RNAS” (Camp4 Therapeutics Corporation, priority 2022, published 2025)
